Laboratory results as given in patent US20130096160A1, “ARYLTHIAZOLYL PIPERIDINES AND RELATED COMPOUNDS AS MODULATORS OF SURVIVAL MOTOR NEURON (SMN) PROTEIN PRODUCTION” (Secretary, Department of Health and Human Services, priority 2010, published 2013).

Key:
SMN1-luciferase reporter = SMN1-luciferase reporter control cell line; format: cell-based, human; conditions: SMN1-luc reporter, FIG. 1
Text: A cell-based quantitative high throughput screening (qHTS) assay is used to identify compounds able to increase SMN production. The assay uses a SMN2-luciferase reporter to determine if exon 7 of the SMN gene is expressed, which correlates with increased full-length SMN production from the SMN2 gene. As controls, a homologue SMN1-luciferase reporter cell line looks for variations in expression of the SMN1 gene and a cell line with just the luciferase reporter looks at the capacity of the compounds to inhibit luciferase. In addition, increments in SMN production by lead compounds were confirmed by Western-Blot analysis using SMA patient fibroblasts.
The SMN reporters used herein are modified from those previously described (M. L. Zhang, C. L. Lorson, E. J. Androphy and J. Zhou, An in vivo reporter system for measuring increased inclusion of exon 7 in SMN2 mRNA: potential therapy of SMA, Gene Ther 8 (2001), pp. 1532-1538.)
The sequence of the SMN1 reporter vector used herein is given in SEQ ID NO.:1, while that of the SMN2 reporter vector is given in SEQ ID NO.:2. […]

SMN2-luciferase reporter = SMN2-luciferase reporter qHTS assay; format: cell-based, human; conditions: SMN2-luc reporter, FIG. 1
Summary of the method: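 SMN2 exon-7 splicing firefly-luciferase reporter cell line, ~2000 cells/well in phenol-red-free DMEM with 10% serum, allowed to adhere 10–12 h, then exposed to compounds for 2 days at 37 C, 5% CO2. Seven-point five-fold dilution series (e.g. 50 μM to 3.2 nM), OneGlo luminescence read, curves fitted to Hill equation.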

## NC(=O)C1CCN(c2nc(-c3ccc(Br)cc3)cs2)CC1 [MLS000698854]
SMN1-luciferase reporter
  expression of SMN1 (in words): does not affect the expression of SMN1
SMN2-luciferase reporter
  expression of SMN2 / levels of the full length SMN2 gene (in words): increases the expression of SMN2
